In ChEMBL document CHEMBL5034039, “Discovery of Novel, Orally Bioavailable Pyrimidine Ether-Based Inhibitors of ELOVL1” (J Med Chem, 2021):
Activity calls are given as the source filed them. No cut-off for these calls is given here.

Experiments:
[1] = Reduction in C26:0/C16:0 LPC level in ABCD1 knock out mouse CNS at 10 mg/kg, po qd and measured after 8 months relative to control; assay type: functional; parameters: scale not given: the % may be the effect or the level left; settings: 5840 h
[2] = Reduction in C26:0/C16:0 LPC level in ABCD1 knock out mouse CNS at 10 mg/kg, po qd and measured after 3 months relative to control; assay type: functional; parameters: scale not given: the % may be the effect or the level left; settings: 2190 h
[3] = Intrinsic clearance in rat hepatocytes assessed per million cells; assay type: ADME, cell-based, Hepatocyte; settings: read-out: CLH
[4] = molecular target: T1, Very long chain fatty acid elongase 1 (Homo sapiens, UniProt Q9BW60); experiment: Inhibition of ELOVL1 in HEK293 cells assessed as reduction of C26:0 lipo phosphatidyl choline synthesis; assay type: cell-based
T1 sequence (Q9BW60 whole entry): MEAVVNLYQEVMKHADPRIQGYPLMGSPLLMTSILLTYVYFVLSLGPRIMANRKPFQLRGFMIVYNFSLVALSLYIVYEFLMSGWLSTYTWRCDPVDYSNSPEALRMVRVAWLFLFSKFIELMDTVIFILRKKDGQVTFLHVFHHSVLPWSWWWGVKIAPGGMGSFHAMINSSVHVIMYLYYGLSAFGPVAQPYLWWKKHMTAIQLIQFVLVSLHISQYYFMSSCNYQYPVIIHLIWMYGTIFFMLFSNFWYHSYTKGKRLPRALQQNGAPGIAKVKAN

[5] = Lipophilicity, logD of the compound at pH 7.4; assay type: physicochemical; settings: buffer
[6] = molecular target: T1, Very long chain fatty acid elongase 1; experiment: Inhibition of ELOVL1 (unknown origin)
[7] = Clearance in rat at 1 mg/kg, iv; assay type: ADME, organism-based; settings: in vivo
Mus musculus [8] = experiment: Reduction in C26:0/C16:0 LPC level in ABCD1 knock out mouse CNS at 4 to 32 mg/kg, po qd and measured after 1 month; assay type: functional, organism-based; settings: dose 4-32 mg/kg, time 1.0 months
[9] = molecular target: Voltage-gated inwardly rectifying potassium channel KCNH2 (Homo sapiens, UniProt Q12809); experiment: Inhibition of human ERG
Chain of Voltage-gated inwardly rectifying potassium channel KCNH2 (Q12809 whole entry): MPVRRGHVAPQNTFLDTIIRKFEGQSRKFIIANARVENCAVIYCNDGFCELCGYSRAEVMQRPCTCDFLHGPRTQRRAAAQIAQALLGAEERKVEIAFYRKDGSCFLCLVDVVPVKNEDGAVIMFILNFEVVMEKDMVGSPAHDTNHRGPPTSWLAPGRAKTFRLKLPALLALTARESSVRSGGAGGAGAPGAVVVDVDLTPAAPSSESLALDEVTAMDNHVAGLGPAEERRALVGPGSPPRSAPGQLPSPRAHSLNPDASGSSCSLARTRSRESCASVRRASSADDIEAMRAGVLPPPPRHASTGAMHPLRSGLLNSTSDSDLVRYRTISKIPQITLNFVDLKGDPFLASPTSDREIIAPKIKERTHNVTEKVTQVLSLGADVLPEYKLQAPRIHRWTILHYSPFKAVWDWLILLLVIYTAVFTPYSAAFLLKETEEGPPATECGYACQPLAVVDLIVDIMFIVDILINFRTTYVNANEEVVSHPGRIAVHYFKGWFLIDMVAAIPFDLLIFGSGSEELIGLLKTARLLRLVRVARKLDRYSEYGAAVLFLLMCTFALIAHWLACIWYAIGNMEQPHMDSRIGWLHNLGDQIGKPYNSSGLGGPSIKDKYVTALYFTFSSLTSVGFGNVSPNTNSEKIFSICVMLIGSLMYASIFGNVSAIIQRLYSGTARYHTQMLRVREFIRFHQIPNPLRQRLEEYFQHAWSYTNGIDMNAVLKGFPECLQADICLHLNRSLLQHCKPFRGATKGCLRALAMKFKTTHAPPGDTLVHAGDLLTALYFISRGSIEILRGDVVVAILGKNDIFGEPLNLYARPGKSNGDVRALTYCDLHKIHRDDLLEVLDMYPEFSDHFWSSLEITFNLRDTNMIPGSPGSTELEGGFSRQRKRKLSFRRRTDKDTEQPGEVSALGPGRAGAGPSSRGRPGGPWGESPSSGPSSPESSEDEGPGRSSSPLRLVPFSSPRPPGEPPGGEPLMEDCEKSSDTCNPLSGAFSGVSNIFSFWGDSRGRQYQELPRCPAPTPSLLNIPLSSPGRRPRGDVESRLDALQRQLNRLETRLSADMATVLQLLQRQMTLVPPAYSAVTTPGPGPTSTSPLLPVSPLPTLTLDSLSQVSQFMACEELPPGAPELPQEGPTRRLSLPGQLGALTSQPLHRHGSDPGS

[10] = Toxicity in Cynomolgus monkey assessed as convulsion at >50 mg/kg/day, po qd measured after 14 days; assay type: organism-based, Macaca fascicularis; settings: in vivo, 336 h, time 14 day
[11] = Reduction in C26:0/C16:0 LPC level in ABCD1 knock out mouse blood at >=8 mg/kg, po qd and measured after 1 week relative to control; assay type: functional; parameters: scale not given: the % may be the effect or the level left; settings: dose mg/kg >=8; time 1 weeks
[12] = molecular target: T2, Very long chain fatty acid elongase 6 (Homo sapiens, UniProt Q9H5J4); experiment: Inhibition of ELOVL6 in HEK293 cells by radiometric enzyme assay; assay type: cell-based
T2 sequence (Q9H5J4 whole entry): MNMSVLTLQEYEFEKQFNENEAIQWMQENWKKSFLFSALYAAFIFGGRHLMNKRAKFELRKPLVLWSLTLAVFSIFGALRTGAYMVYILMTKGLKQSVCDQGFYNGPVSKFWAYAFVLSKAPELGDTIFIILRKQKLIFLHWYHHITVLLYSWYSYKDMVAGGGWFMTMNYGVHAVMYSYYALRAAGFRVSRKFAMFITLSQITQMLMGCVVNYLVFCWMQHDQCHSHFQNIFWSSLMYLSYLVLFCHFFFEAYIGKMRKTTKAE

[13] = Reduction in C26:0 LPC level in wild type mouse blood at 4 mg/kg, po qd and measured after 1 week relative to control; assay type: functional; parameters: scale not given: the % may be the effect or the level left; settings: time 1 weeks
Cynomolgus monkey [14] = experiment: Reduction in C26:0/C16:0 LPC level in wild type Cynomolgus monkey blood at 50 mg/kg, po qd measured after 14 days relative to control; assay type: functional, Macaca fascicularis; parameters: scale not given: the % may be the effect or the level left; settings: time 14 day
[15] = Permeability of compound across apical to basolateral side in MDCK-MDR1 cells; assay type: ADME, cell-based, Canis lupus familiaris; settings: dog, read-out: permeability
[16] = Inhibition of ELOVL7 in HEK293 cells by radiometric enzyme assay; assay type: cell-based, Homo sapiens
MDR1 = experiment: Efflux ratio of permeability in dog MDCK-MDR1 cells; assay type: ADME, cell-based, Canis lupus familiaris
Mus musculus [17] = experiment: Reduction in C26:0/C16:0 LPC level in ABCD1 knock out mouse blood at 1 to 32 mg/kg, po qd and measured after 1 week; assay type: functional, organism-based; settings: dose 1-32 mg/kg, time 1.0 weeks
[18] = molecular target: T3, Very long chain fatty acid elongase 6 (Homo sapiens) (UniProt Q9H5J4); experiment: Inhibition of ELOVL6 in HEK293 cells assessed as reduction of C18:0 lipo phosphatidyl choline synthesis at 100 nM in presence of 13C-labeled acetate measured after 48 hrs by mass spectroscopic analysis; assay type: cell-based
T3 sequence (whole entry): T2 sequence (Q9H5J4 whole entry)

HEK293 = experiment: Cytotoxicity against HEK293 cells assessed as reduction in cell viability at 100 nM measured after 48 hrs; assay type: cell-based; settings: human, hek293, 48 h, 0.1 µM
[19] = molecular target: T3, Very long chain fatty acid elongase 6 (Homo sapiens); experiment: Inhibition of ELOVL6 in HEK293 cells assessed as reduction of C16:0 lipo phosphatidyl choline synthesis at 100 nM in presence of 13C-labeled acetate measured after 48 hrs by mass spectroscopic analysis; assay type: cell-based
Cynomolgus monkey [20] = experiment: Reduction in C26:0/C16:0 LPC level in wild type Cynomolgus monkey blood at 6.5 mg/kg, po qd measured after 14 days relative to control; assay type: functional, Macaca fascicularis; parameters: scale not given: the % may be the effect or the level left; settings: time 14 day
[21] = Reduction in C26:0/C16:0 LPC level in ABCD1 knock out mouse CNS at 32 mg/kg, po qd and measured after 3 months relative to control; assay type: functional; parameters: scale not given: the % may be the effect or the level left; settings: 2190 h
[22] = molecular target: T4, Very long chain fatty acid elongase 1 (Homo sapiens) (UniProt Q9BW60); experiment: Inhibition of ELOVL1 in HEK293 cells assessed as increase in C20:0 lipo phosphatidyl choline synthesis at 100 nM in presence of 13C-labeled acetate measured after 48 hrs by mass spectroscopic analysis; assay type: cell-based
T4 sequence (whole entry): T1 sequence (Q9BW60 whole entry)

[23] = molecular target: T4, Very long chain fatty acid elongase 1 (Homo sapiens); experiment: Inhibition of ELOVL1 in HEK293 cells assessed as reduction of C24:0 lipo phosphatidyl choline synthesis at 100 nM in presence of 13C-labeled acetate measured after 48 hrs by mass spectroscopic analysis; assay type: cell-based
[24] = Inhibition of ELOVL4 in HEK293 cells by radiometric enzyme assay; assay type: cell-based, Homo sapiens
[25] = Reduction in C26:0 LPC level in wild type mouse blood at 32 mg/kg, po qd and measured after 1 week relative to control; assay type: functional; parameters: scale not given: the % may be the effect or the level left; settings: time 1 weeks
[26] = Reduction in C26:0/C16:0 LPC level in wild type Sprague-Dawley rat blood at 10 mg/kg, po qd measured after 28 days relative to control; assay type: functional; parameters: scale not given: the % may be the effect or the level left; settings: time 28 day
[27] = Oral bioavailability in rat at 3 mg/kg; assay type: ADME, organism-based; settings: in vivo
[28] = molecular target: Kappa-type opioid receptor (Homo sapiens) (UniProt P41145); experiment: Inhibition of human kappa opioid receptor at 10 uM relative to control
Chain of Kappa-type opioid receptor (Homo sapiens) (P41145 whole entry): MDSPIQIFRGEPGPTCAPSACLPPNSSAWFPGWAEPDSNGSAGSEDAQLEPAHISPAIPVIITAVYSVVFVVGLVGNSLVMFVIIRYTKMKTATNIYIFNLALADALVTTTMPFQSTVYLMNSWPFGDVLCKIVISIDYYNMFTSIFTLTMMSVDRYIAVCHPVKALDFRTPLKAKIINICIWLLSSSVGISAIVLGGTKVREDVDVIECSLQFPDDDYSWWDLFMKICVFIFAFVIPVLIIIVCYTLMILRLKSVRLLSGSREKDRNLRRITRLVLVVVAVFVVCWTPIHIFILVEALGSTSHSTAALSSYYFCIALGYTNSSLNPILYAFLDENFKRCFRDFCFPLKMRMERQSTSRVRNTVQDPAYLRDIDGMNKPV

[29] = Reduction in C26:0 LPC level in wild type mouse blood at 16 mg/kg, po qd and measured after 1 week relative to control; assay type: functional; parameters: scale not given: the % may be the effect or the level left; settings: time 1 weeks
[30] = Half life in rat at 1 mg/kg, iv; assay type: ADME, organism-based; settings: in vivo
[31] = molecular target: 3',5'-cyclic phosphodiesterase (Homo sapiens) (UniProt O76074+P27815+Q14432+Q13956+P18545+O00408+Q13946+P54750+O76083+P35913+Q08499+Q07343+O43924+P16499+Q13370+P51160+O95263+Q9Y233+Q01064+Q08493+Q14123+O60658+Q9NP56); experiment: Inhibition of human PDE4 at 10 uM relative to control; assay type: protein assay
[32] = Reduction in C26:0/C16:0 LPC level in wild type Sprague-Dawley rat blood at 50 mg/kg, po qd measured after 28 days relative to control; assay type: functional; parameters: scale not given: the % may be the effect or the level left; settings: time 28 day
[33] = molecular target: T4, Very long chain fatty acid elongase 1 (Homo sapiens); experiment: Inhibition of ELOVL1 in HEK293 cells assessed as reduction of C26:0 lipo phosphatidyl choline synthesis at 100 nM in presence of 13C-labeled acetate measured after 48 hrs by mass spectroscopic analysis; assay type: cell-based
[34] = Ocular toxicity in rat assessed as corneal opacities at 10 to 50 mg/kg/day, po qd measured after 8 weeks by macroscopic analysis; assay type: organism-based; settings: in vivo, 1344 h, dose 10-50 mg/kg/day

O=C(Nc1ccn(-c2ccnc(F)c2)n1)C1(c2ccccc2F)CC1
Activity [1]: 65%
Activity [2]: 34%

Fc1ccc(CCOc2cc(N3CCCC3)ncn2)cc1
hepatocyte CLint [3]: 273 µL/min/1e6 cells
IC50 [4]: 430 nM
logD [5]: 3.9

Fc1ccc(CCOc2cc(N3CCCCC3)ncn2)cc1
hepatocyte CLint [3]: 139 µL/min/1e6 cells
IC50 [6]: 220 nM
IC50 [4]: 80 nM

Fc1ccc(CCOc2cc(N3CCCCCC3)ncn2)cc1
hepatocyte CLint [3]: 273 µL/min/1e6 cells
IC50 [4]: 230 nM
logD [5]: 5.3

Cc1ccnn1CCCOc1cc(N2CCCCC2)ncn1
hepatocyte CLint [3]: 184 µL/min/1e6 cells
IC50 [4]: 7 nM
logD [5]: 3.2

Fc1ccc(CCOc2ccc(-c3cccnc3)cn2)cc1
IC50 [6]: 21000 nM
IC50 [4]: 6700 nM

Cc1ccnn1CCCOc1cc(N2C3COCC2C3)ncn1
hepatocyte CLint [3]: 40 µL/min/1e6 cells
IC50 [4]: 230 nM
logD [5]: 1.3

c1ccc([C@H]2CN(c3cc(O[C@H]4C[C@@H](n5cccn5)C4)ncn3)CCO2)cc1
clearance [7]: 20 mL/min/kg
Activity (Mus musculus [8]): inactive
IC50 [9]: > 30000 nM
Activity [10]: Toxic
Activity [11]: 72%
IC50 [12]: > 50000 nM
Activity [13]: 45%
Activity (Cynomolgus monkey [14]): 65%
Papp A→B [15]: 17.4 ×10⁻⁶ cm/s
IC50 [16]: > 50000 nM
efflux ratio (MDR1): 1
hepatocyte CLint [3]: 20 µL/min/1e6 cells
Activity (Mus musculus [17]): Active
inhibition [18]: inactive
Activity (HEK293): Non-Toxic
inhibition [19]: inactive
Activity (Cynomolgus monkey [20]): 47%
Activity [21]: 27%
inhibition [22]: Active
inhibition [23]: Active
IC50 [24]: > 50000 nM
Activity [25]: 70%
Activity [26]: 78%
IC50 [4]: 0.4 nM
bioavailability [27]: 45%
inhibition [28]: 54%
Activity [29]: 70%
half-life [30]: 3.1 h
inhibition [31]: 74%
Activity [32]: 79%
logD [5]: 3.3
inhibition [33]: Active
Activity [34]: Toxic

CN(C)c1cc(OCCc2ccc(F)cc2)ncn1
hepatocyte CLint [3]: 539 µL/min/1e6 cells
IC50 [4]: 60 nM
logD [5]: 3.6

Fc1ccc(CCOc2cc(N3CCCCC3)ccn2)cc1
IC50 [6]: 860 nM
IC50 [4]: 440 nM

Fc1ccc(CCOc2cc(N3CCCOCC3)ncn2)cc1
hepatocyte CLint [3]: 144 µL/min/1e6 cells
IC50 [4]: 3 nM
logD [5]: 3.4

Cc1ccnn1CCCOc1cc(N2CCOC(c3ccccc3)C2)ncn1 (centres undefined)
hepatocyte CLint [3]: 111 µL/min/1e6 cells
IC50 [4]: 7 nM
logD [5]: 3.8

Fc1ccc(CCOc2cc(N3CCOCC3)ncn2)cc1
hepatocyte CLint [3]: 137 µL/min/1e6 cells
IC50 [4]: 12 nM
logD [5]: 3.3

c1ccc([C@H]2CN(c3cc(O[C@H]4C[C@@H](c5ccccc5)C4)ncn3)CCO2)cc1
hepatocyte CLint [3]: 11 µL/min/1e6 cells
IC50 [4]: 15 nM
logD [5]: 5.7
